Each structure is given as a SMILES string.

One series addresses T1, VHL Elongin B/C complex (Homo sapiens, UniProt P40337).
T1 construct: amino acids E55-D213 of human VHL; His6 (N); TEV-protease cleavage site (N); made in house; host or cells: E. coli
Nature of the series: Fluorescence Polarization (FP) VHL Binding Assay. As to conditions: fluorescence polarization tracer competition; geometric mean where more than one measurement. As to the method:
The binding of test compounds to the VHL Elongin B/C complex is measured using a fluorescence polarization tracer competition assay. The VHL/Elongin B/C protein complex used in the assay is generated as follows. The coding region for amino acids E55-D213 of human VHL with N-terminal His6 tag with a TEV-protease cleavage site is co-expressed with Elongin B (residues M1-Q118) and Elongin C (Residues M17-C112) in E. coli. The VHL/Elongin B/C complex is purified using an affinity nickel column, anion exchange HiTrap QP HP column chromatography, and gel filtration using a Superdex 75 26/60 column. […] A VHL fluorescence polarization probe consists of a VHL ligand coupled to carboxytetramethylrhodamine (TAMRA); (2S,4R)—N-(2-(2-(3′,6′-bis(dimethylamino)-3-oxo-3H-spiro[isobenzofuran-1,9′-xanthene]-5-carboxamido)ethoxy)-4-(4-methylthiazol-5-yl)benzyl)-4-hydroxy-1-((R)-3-methyl-2-(3-methylisoxazol-5-yl)butanoyl)pyrrolidine-2-carboxamide. […] A “pre-assay” fluorescence measurement is made using an Infinite® M1000 (Tecan) plate reader (Excitation 530 nm, Emission 574 nm, Bandwidth 10 nm). […] “Post-assay” fluorescence polarization measurements are made as described for the “pre-assay” fluorescence measurement. […] The data are analyzed using Genedata Screener software and normalized to the “no VHL control” and “VHL control” (without compound). […]
For orientation: Fluorescence polarisation rises when a labelled molecule tumbles more slowly, as on binding a larger partner.

Series [1] concerns the target T2, NanoLuc VHL fusion protein stably expressed in HEK 293 cells (Homo sapiens, UniProt P40337).
T2 construct: expressed in transfected cells
The experiment in a line: VHL HEK-293 BRET Assay (VHL NanoBRET Target Engagement Assay). It counts as cell-based. As to conditions: for IC50: HEK293 cells, nanoBRET, geometric mean where more than one measurement, read-out: VHL binding in cells (HEK293 nanoBRET); for Ratio cell permeability shift: ratio of nanoBRET in cells to nanoBRET +Digitonin. How it is done: The VHL NanoBRET™ Target Engagement Assay analyzes the apparent affinity of test compounds for VHL in cells by competitive displacement of a VHL NanoBRET™ tracer reversibly bound to a NanoLuc® VHL fusion protein stably expressed in the cells.
Test compounds were transferred to the assay plate (384 Well White Non-Binding Corning Assay Plates (Corning-3574)) using an Echo 555 Liquid Handler (Labcyte) in 2.5 nL increments and, as appropriate, intermediate stock concentrations of compounds, in order to prepare a titration series. 50 nL of control compound (10 mM; parental unlabeled VHL antagonist; see structure below) and 50 nL of DMSO (negative control) were dispensed into the appropriate control wells. DMSO was backfilled to a final volume of 50 nL as required. 50 nl per well of 1 mM VHL NanoBRET™ Tracer in DMSO (NanoBRET™ Tracer-PEG2-590 (see structure below)) was transferred into each well using an Echo 555 (ultimately yielding a final concentration of 1 uM). HEK 293 RT VHL-NanoLuc® stable cells were cultured in DMEM High Glucose with Pyruvate, 10% fetal bovine serum, 2 mg/mL of Geneticin Selective Antibiotic (50 mg/ml) and 2 mM HEPES (1 M). Cells were seeded in Opti-MEM (Life Technologies-11058-021), 1.7×10^5 cells/mL, 40 μl per well into the assay plate, centrifuged at 500 rpm for 30 seconds and incubated for 2 hours. Max Signal control wells consisted of DMSO only treated wells. Minimum Signal control wells contained of 10 uM parental unlabeled VHL antagonist (control compound—see structure below). 3× Complete Substrate plus Inhibitor Solution was prepared in Opti-MEM (consists of a 1:166 dilution of NanoBRET™ Nano-Glo® Substrate plus a 1:500 dilution of Extracellular NanoLuc® Inhibitor in Opti-MEM), and 20 ul was dispensed into each well of the 384-well plate and centrifuged at 1000 rpm for 1 minute, then incubated for 2 minutes at room temperature. Background Signal control wells were prepared without tracer for background correction steps.
Plates were read using a PerkinElmer Envision Reader (model 2104-0020) equipped with Luminescence option (Mirror: BRET2 Enh (PE Barcode 659), Emission Filter: Omega 610LP (Barcode 504), 2nd Emission Filter: Umbelliferone 460 (Barcode 207), Measurement height: 6.5 mm, Measurement time: 1 s). The raw BRET ratio values were calculated by dividing the acceptor emission value (610 nm) by the donor emission value (460 nm) for each sample. To correct for background, the BRET ratio in the absence of tracer (average of no-tracer control samples) was subtracted from the BRET ratio of each sample. Raw BRET units were converted to milliBRET units (mBU) by multiplying each raw BRET value by 1,000. The normalized NanoBRET™ signal was calculated relative to the Max Signal control wells (DMSO treated control wells) and the Minimum Signal control wells. Percentage inhibition was calculated relative to the Minimum Signal control and Maximum Signal control wells. IC50 values were derived by four parameter curve fitting using the Robust method.
A general note: In BRET a luciferase serves as donor, and the signal depends on an acceptor being close.

In a further series the target is T3, VHL (Homo sapiens, UniProt P40337).
T3 construct: expressed in transfected cells
Nature of the series: VHL nanoBRET (+Digitonin). Type of series: cell-based.

T3 sequence (P40337 whole entry): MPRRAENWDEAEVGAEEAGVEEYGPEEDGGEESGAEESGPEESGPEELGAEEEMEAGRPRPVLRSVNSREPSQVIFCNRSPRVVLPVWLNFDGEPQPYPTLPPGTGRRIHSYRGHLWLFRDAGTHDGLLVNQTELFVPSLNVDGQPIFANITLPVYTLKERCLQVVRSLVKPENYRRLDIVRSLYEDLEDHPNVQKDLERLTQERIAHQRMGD
T3 sequence (Q15370 whole entry partner): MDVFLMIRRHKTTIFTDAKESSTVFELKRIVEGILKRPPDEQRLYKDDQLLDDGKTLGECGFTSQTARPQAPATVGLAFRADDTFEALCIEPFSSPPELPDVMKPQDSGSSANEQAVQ
T3 sequence (Q15369 whole entry partner): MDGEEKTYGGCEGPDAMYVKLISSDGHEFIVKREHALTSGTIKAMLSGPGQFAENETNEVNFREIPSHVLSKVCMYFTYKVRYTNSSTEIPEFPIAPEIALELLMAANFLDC
T2 sequence (P40337 whole entry, the tested form may be a part): as the sequence (P40337 whole entry) above
T2 sequence (Q15370 whole entry partner, the tested form may be a part): as the sequence (Q15370 whole entry partner) above
T2 sequence (Q15369 whole entry partner, the tested form may be a part): as the sequence (Q15369 whole entry partner) above
T1 sequence (P40337 55-213): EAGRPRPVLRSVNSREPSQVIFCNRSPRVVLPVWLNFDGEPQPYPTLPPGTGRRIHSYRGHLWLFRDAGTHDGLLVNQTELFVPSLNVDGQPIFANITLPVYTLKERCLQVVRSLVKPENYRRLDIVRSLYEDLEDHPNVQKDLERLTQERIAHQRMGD
T1 sequence (Q15370 whole entry partner, the tested form may be a part): as the sequence (Q15370 whole entry partner) above
T1 sequence (Q15369 17-112 partner limits assumed): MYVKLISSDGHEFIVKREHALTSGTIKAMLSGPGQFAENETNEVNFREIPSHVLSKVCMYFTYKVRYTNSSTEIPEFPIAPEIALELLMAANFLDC

One may read the EC50 as the concentration that produces a half-maximal response. Regarding `CC(C)(C)[C@@H](C(=O)N1C[C@H](O)C[C@H]1C(N)=O)n1cc(C2CC2)nn1` [Final product from Example S1, (2S,4R)-1-((S)-2-(4-cyclopropyl-1H-1,2,3-triazol-1-yl)-3,3-dimethylbutanoyl)-4-hydroxypyrrolidine-2-carboxamide], on VHL Elongin B/C complex, the IC50 worked out at 1170 nM. For the same compound, in series [1], the IC50 came out at 2000 nM and the “Ratio cell permeability shift” value is listed as 1.71. In addition, a half-maximal effect on VHL (EC50) was put at 2140 nM.

With `CNC(=O)[C@@H]1C[C@@H](O)CN1C(=O)[C@H](C(C)C)n1cc(-c2cccnc2)nn1` [Final product from Example S36, (2S,4R)-4-hydroxy-N-methyl-1-((S)-3-methyl-2-(4-(pyridin-3-yl)-1H-1,2,3-triazol-1-yl)butanoyl)pyrrolidine-2-carboxamide], in series [1], the IC50 was determined as 1220 nM and the “Ratio cell permeability shift” value came to 1.21. This compound had an EC50 on VHL of 1010 nM.

Turning to `CNC(=O)[C@@H]1C[C@@H](O)CN1C(=O)[C@H](C(C)C)n1cc(-c2ccncc2)nn1` [Final product from Example S37, (2S,4R)-4-hydroxy-N-methyl-1-((S)-3-methyl-2-(4-(pyridin-4-yl)-1H-1,2,3-triazol-1-yl)butanoyl)pyrrolidine-2-carboxamide], in series [1], the IC50 amounted to 1960 nM and the “Ratio cell permeability shift” value amounted to 1.33. The EC50 at VHL stood at 1470 nM.

Turning to `CNC(=O)[C@@H]1C[C@@H](O)CN1C(=O)[C@H](C(C)C)n1cc(-c2ncccn2)nn1` [Final product from Example S38, (2S,4R)-4-hydroxy-N-methyl-1-((S)-3-methyl-2-(4-(pyrimidin-2-yl)-1H-1,2,3-triazol-1-yl)butanoyl)pyrrolidine-2-carboxamide], in series [1], the IC50 is 13800 nM and the “Ratio cell permeability shift” value was determined as 3.40. In addition, on VHL, the 50% effective concentration (EC50) is 4060 nM.

For the compound `CNC(=O)[C@@H]1C[C@@H](O)CN1C(=O)[C@H](C(C)C)n1cc(-c2cncnc2)nn1` [Final product from Example S39, (2S,4R)-4-hydroxy-N-methyl-1-((S)-3-methyl-2-(4-(pyrimidin-5-yl)-1H-1,2,3-triazol-1-yl)butanoyl)pyrrolidine-2-carboxamide], in series [1], the IC50 was 1690 nM and the “Ratio cell permeability shift” value is 2.35. The compound further showed an EC50 on VHL of 720 nM.

Take `CNC(=O)[C@@H]1C[C@@H](O)CN1C(=O)[C@H](C(C)C)n1cc(-c2ccc(Cl)s2)nn1` [Final product from Example S40, (2S,4R)-1-((S)-2-(4-(5-chlorothiophen-2-yl)-1H-1,2,3-triazol-1-yl)-3-methylbutanoyl)-4-hydroxy-N-methylpyrrolidine-2-carboxamide]: in series [1], the IC50 is 570 nM and the “Ratio cell permeability shift” value was found to be 1.24. Also, the EC50 at VHL came to 460 nM.

Turning to `CC(C)[C@@H](C(=O)N1C[C@H](O)C[C@H]1C(=O)N(C)C)n1cc(C2CC2)nn1` [Final product from Example S41, (2S,4R)-1-((S)-2-(4-cyclopropyl-1H-1,2,3-triazol-1-yl)-3-methylbutanoyl)-4-hydroxy-N,N-dimethylpyrrolidine-2-carboxamide], in series [1], the IC50 is 49900 nM and the “Ratio cell permeability shift” value was determined as 0.69. The EC50 at VHL came out at 72300 nM.
